# Literature values, collected in patent publication US9145391B2, “Bipyridylaminopyridines as Syk inhibitors” (Merck Sharp & Dohme Corp., priority 2011, dated 2015).
# Experiments:
# Syk kinase [1] = target: T1, Syk kinase (Homo sapiens (Human), UniProt P43405); conditions: dosed intranasally, allergic rhinitis; cited from earlier work
# Syk kinase [2] = target: T1, Syk kinase; conditions: phase II clinical trial, allergic rhinitis; cited from earlier work
structure (smiles),measurement,setting,value
Oc1cccc(Nc2ncc(F)c(Nc3cccc(O)c3)n2)c1 [Example R112],PGD2 change,Syk kinase [1],statistically significant decrease in PGD2
same,clinical safety,Syk kinase [1],safe across a range of indicators
same,efficacy versus placebo,Syk kinase [2],lack of efficacy versus placebo
